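Interpolation was linear, between the two tested concentrations surrounding the appropriate level; five concentrations were tested over 48 hours in 96-well plates. The concentration for 50% growth inhibition is given as GI50. TGI is the concentration that stops growth completely.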
Experiments:
Assay in all cases: NCI tumour cell line growth inhibition, 48 h
[1] = system: MALME-3M melanoma
[2] = system: HCC-2998 colon
[3] = system: HT29 colon
[4] = system: IGROV1 ovarian
[5] = system: NCI-H23 lung
[6] = system: HOP-62 NSCLC
[7] = system: A498 renal
[8] = system: HCT-15 colon
[9] = system: MOLT-4 leukemia
[10] = system: NCI-H460 lung

Row | Compound | TGI [1] | TGI [2] | TGI [3] | TGI [4] | TGI [5] | TGI [6] | TGI [7] | TGI [8] | TGI [9] | TGI [10] | GI50 [1] | GI50 [2] | GI50 [3] | GI50 [4] | GI50 [5] | GI50 [6] | GI50 [7] | GI50 [9] | GI50 [10]
1 | C=CC[N+]12CN3CN(CN(C3)C1)C2 | 45.2 µM | 55.8 µM | 42.8 µM | 66.4 µM | 52.8 µM | > 100 µM | 94.1 µM | 50.9 µM | 57.5 µM | 54.7 µM | – | – | – | – | – | – | – | – | –
2 | O=c1ccc2nc(-c3ccccc3)nn(-c3ccccn3)c-2c1 | 3.56 µM | 44.5 µM | 15.1 µM | 45.4 µM | 45.1 µM | 82.9 µM | 37.3 µM | – | 6.21 µM | > 100 µM | 1.92 µM | 20.9 µM | 3.2 µM | 14.1 µM | 13.6 µM | 21.8 µM | 16.6 µM | 1.79 µM | 70.2 µM
3 | O=C1c2ccccc2C(=O)c2c(Nc3ccc4c5c(cccc35)C(=O)c3ccccc3-4)cccc21 | > 100 µM | > 100 µM | > 100 µM | > 100 µM | > 100 µM | > 100 µM | > 100 µM | > 100 µM | > 100 µM | > 100 µM | – | – | – | – | – | – | – | – | –
4 | N#CCCCC[N+]12CN3CN(CN(C3)C1)C2 | > 100 µM | > 100 µM | > 100 µM | > 100 µM | > 100 µM | > 100 µM | > 100 µM | > 100 µM | > 100 µM | > 100 µM | – | – | – | – | – | – | – | – | –
5 | CC(C)c1cc(CN(C)C)c(O)c(C(C)(C)C)c1 | 76.2 µM | 29.6 µM | > 100 µM | > 100 µM | > 100 µM | 62.9 µM | 41.3 µM | 63.3 µM | 42.5 µM | 32.3 µM | – | – | – | – | – | – | – | – | –
6 | O=C(CNc1cccc([N+](=O)[O-])c1)Nn1c(-c2ccccc2)nc2ccccc2c1=O | 2.41 µM | 2.81 µM | 1.08 µM | 0.482 µM | 9.32 µM | 4.25 µM | 0.274 µM | 2.23 µM | 0.818 µM | – | – | – | – | – | – | – | – | – | –
7 | NC(=O)C(N)=O | > 100 µM | > 100 µM | – | – | > 100 µM | > 100 µM | > 100 µM | > 100 µM | > 100 µM | > 100 µM | – | – | – | – | – | – | – | – | –
8 | Nc1nc(N)c2c(n1)NC(=O)c1c(c3ccccc3n1Cc1ccc(Cl)cc1)C2 | > 100 µM | 34.4 µM | > 100 µM | > 100 µM | > 100 µM | 57.5 µM | 30.8 µM | 35.6 µM | 72 µM | 36.8 µM | – | – | – | – | – | – | – | – | –
9 | N#CN=C(N)NC(=O)/C=C/C=C/c1ccc(Cl)cc1 | > 100 µM | – | > 100 µM | > 100 µM | > 100 µM | > 100 µM | > 100 µM | > 100 µM | > 100 µM | > 100 µM | – | – | – | – | – | – | – | – | –
10 | C#CCOc1c(C(=O)OCC)c(=O)n(C)c2ccccc12 | > 100 µM | – | > 100 µM | > 100 µM | > 100 µM | – | > 100 µM | > 100 µM | > 100 µM | > 100 µM | – | – | – | – | – | – | – | – | –
11 | CC(C)(C)N1C(C(=O)c2ccccc2)C1c1ccccc1 (configuration not stated) | – | > 100 µM | > 100 µM | > 100 µM | > 100 µM | > 100 µM | – | > 100 µM | > 100 µM | > 100 µM | – | – | – | – | – | – | – | – | –
12 | CCOC(=O)C12CCC(=O)C=C1[C@@H](C)C(=O)CC2 (some centres not stated) | > 100 µM | > 100 µM | > 100 µM | > 100 µM | > 100 µM | > 100 µM | – | > 100 µM | – | > 100 µM | – | – | – | – | – | – | – | – | –
13 | COc1ccc(C[C@H](N)C(=O)NC2C(CO)OC(n3cnc4c(N(C)C)ncnc43)C2O)cc1 (some centres not stated) | 2.53 µM | 1.01 µM | – | 2.66 µM | 0.432 µM | 2.07 µM | 2.48 µM | 11.9 µM | 0.412 µM | 1.15 µM | – | – | – | – | – | – | – | – | –
14 | COC(=O)Nc1nc2cc(OC)c(OC)cc2c(=O)[nH]1 | > 100 µM | > 100 µM | > 100 µM | > 100 µM | > 100 µM | > 100 µM | > 100 µM | > 100 µM | > 100 µM | > 100 µM | – | – | – | – | – | – | – | – | –

Reference: PubChem BioAssay (NCI)
